# From PubChem BioAssay AID814 (SRMLSC, 2007)
# Calls of active or inactive are those of the source. The rule behind the calls is not given here.
# Tested on: cell imaging, HER kinase expression, mean fluorescence
# Experiment: HER kinase expression suppression, imaging readout – mean fluorescence, total cell number, dose response (AID 814)
# [1] = measured here: total cell number (cytotoxicity)
SMILES,EC50,EC50 [1] [µM]
CCCCS(=O)(=O)/C=C\C=C/S(=O)(=O)CCCC,8.14 µM,7.52
Cc1nn2c(-c3ccco3)nnc2c2ccccc12,8.3 µM,> 10
O=S(=O)(C/C(=C/CO)S(=O)(=O)c1ccccc1)c1ccccc1,> 10 µM (inactive),> 10
CS(=O)(=O)c1nc(-c2cccs2)cc(C(F)(F)F)n1,> 10 µM (inactive),> 10
Cc1nc(NC(=O)c2ccco2)sc1C(=O)Nc1ccc(Br)cc1,8.41 µM,> 10
CN(C)CC(C(=O)c1ccccc1)c1ccccc1 (stereo not drawn),6.95 µM,> 10
CS(=O)(=O)c1nc(-c2ccccc2)cc(C(F)(F)F)n1,> 10 µM (inactive),> 10
O=S1(=O)C=C(Sc2nc3ccccc3s2)c2ccccc21,5.41 µM,7.61
CS(=O)(=O)c1nc(-c2ccco2)cc(C(F)(F)F)n1,> 10 µM (inactive),> 10
Cc1nc2nc(-c3ccco3)nn2c(C)c1Cl,9.52 µM,> 10
CC(=O)c1sc2nc(-c3cccs3)cc(C(F)(F)F)c2c1N,> 10 µM (inactive),> 10
Cc1ccc(-c2csc3ncnc(Sc4nnc(CN5CCCCCC5=O)o4)c23)cc1,8.06 µM,> 10
Cn1c(C(C#N)C(=O)c2ccco2)nc2ccccc21 (stereo not drawn),8.31 µM,> 10
COc1ccc(C(=O)C(CN2CCCC2)c2ccccc2)cc1 (stereo not drawn),8.27 µM,> 10
COC(=O)c1sccc1NC(=O)c1ccc(Cl)s1,6.49 µM,> 10
CCN1/C(=C/C(=O)c2ccco2)Sc2ccccc21,8.32 µM,> 10
O=C(CSc1nc2cc(Cl)ccc2s1)c1ccco1,> 10 µM (inactive),> 10
CSC1=N/C(=C\C=C\c2cccs2)C(=O)S1,> 10 µM (inactive),> 10
O=S1(=O)C=C(Sc2nnc(-c3ccccc3)o2)c2ccccc21,8.72 µM,> 10
CCCn1c(NC(=O)c2ccco2)nc2ccccc21,9.35 µM,> 10
O=S(=O)(CC(CN1CCCC1)N1CCCC1)c1ccc2ccccc2c1 (stereo not drawn),7.75 µM,> 10
O=S1(=O)C=C(Sc2nc3cc(Cl)ccc3o2)c2ccccc21,> 10 µM (inactive),> 10
Nc1nnnn1/N=C/C(Br)=C/c1ccccc1,4.69 µM,> 10
Cc1ccc(CNC(=O)c2cc3c(-c4ccc(Cl)cc4)nn(C)c3s2)o1,> 10 µM (inactive),> 10
